The test system of one test is Cochliobolus miyabeans. Description: Preventive test against Rice brown spot disease. Type of test: in vivo, Cochliobolus miyabeans on rice plants (cultivar: Kinmaze). To be noted: Oryza sativa, 48 h, read-out: Preventive Value. The protocol:
Rice plants (cultivar: Kinmaze) were each grown in a 10 cm.phi. porcelain pot to the 3-4 leaves stage. The plants were sprayed with 10 ml/l pot of aqueous diluted suspensions of various types of wettable powders of the chemicals of the invention and comparison chemical [bis(dimethyl thiocarbamoyl)disulfide). The wettable powders were prepared in a manner similar to test example 1.
After air drying for 5 hours, the plants were inoculated with a spore suspension of Cochliobolus miyabeans incubated with a chaffy medium at 25° C. for 5 days.
These plants were kept in the humidic chamber at 27° C. for 48 hours after inoculation and the number of lesions were counted and preventive value was calculated according to the following equation. [formula]

A further test deals with Botrytis cinerea. Description: Preventive test against Cucumber Gray Mold disease. Type of test: in vivo. To be noted: 96 h, 4 days after inoculation, 23° C. The protocol: Cucumber plants (cultivar: Satsukimidori), were each grown in a 15 cm.phi. plastic pot to the first leaf stage. The plants were sprayed with 10 ml/l pot of aqueous diluted suspensions of various types of wettable powders (including the wettable powder containing, as its active ingredient, compound No. 1 obtained in the Preparation Example 1, wettable powders, containing as active ingredients compounds Nos. 2-10 obtained in a manner similar to Preparation Example 1, and a wettable powder for a comparison chemical containing, as its active ingredient, tetrachloroisophthalonitrile obtained in manner similar to Preparation Example 1). After air-drying for 5 hours, the plants were inoculated with the mecelia of Botrytis cinerea inoculated with shaking in Yeast-Glucose liquid medium.
The cucumbers were kept in the humidic chamber at 23° C. for 4 days after inoculation and then checked with respect to their disease index. The checking was conducted as follows: The leaves were checked to determine the extent of lesion area and classified into six groups as indicated by indices 0, 1, 2, 3, 4, 5 based on the extent of the lesions and on the numbers of leaves n0, n1, n2, n3, n4, and n5 which corresponded to the indices, respectively, were also determined to calculate the disease index from the following equation.
1 lesion area of 1/5 times the total leaf area
2 lesion area of 2/5 times the total leaf area
3 lesion area of 3/5 times the total leaf area
4 lesion area of 4/5 times the total leaf area
5 lesion area above 4/5 times the total leaf area
(where n is the total number of checked leaves)
The preventive value was calculated from the following equation. [formula]

The next test deals with Botrytis allii. Description: Antifungal Test (PDA medium), Botrytis allii. In kind it is cell-based. To be noted: 96 h, 25° C., 4 days, read-out: MIC Concentration. The protocol: (§1) Each chemical was mixed with PDA medium in an amount enough to obtain the pre-determined concentration level and solidified in 9 cm.phi. Petri dish. Then, various plant disease fungi were inoculated on the middle of the mixed agar plate and cultured at 25° C. for 4 days.
(§2) The minimum inhibition concentration (MIC) means that at which the development of the inoculated fungus was not recognized with the naked eye.

Test [1] has as its system Botrytis cinerea (strain I). Description: Antifungal Test (PDA medium), Botrytis cinerea (strain I). Type of test: cell-based. To be noted: 96 h, 25° C., 4 days, read-out: MIC Concentration. As to the method:
as §1, §2

The test system of a further test is Altrenaria mali. Description: Antifungal Test (PDA medium), Altrenaria mali. Type of test: cell-based. To be noted: 96 h, 25° C., 4 days, read-out: MIC Concentration. The protocol:
as §1, §2

The test system of the next test is Altrenaria Kikuchiana. Description: Antifungal Test (PDA medium), Altrenaria Kikuchiana. To be noted: 96 h, 25° C., 4 days, read-out: MIC Concentration. Type of test: cell-based. The protocol:
as §1, §2

Test [2] has as its system Sclerotinia sclerotiorum. Kind of test: Antifungal Test (PDA medium), Sclerotinia sclerotiorum. Type of test: cell-based. To be noted: 96 h, 25° C., 4 days, read-out: MIC Concentration. As to the method: as §1, §2
Test [3] relates to Botrytis cinerea (strain II). Kind of test: Antifungal Test (PDA medium), Botrytis cinerea (strain II). In kind it is cell-based. To be noted: 96 h, resistant to benzoimidazole type fungicide, 25° C., 4 days, read-out: MIC Concentration. As to the method:
as §1, §2
*Botrytis cinerea (strain II) is the strain resistant to
benzoimidazoletype fungicide e.g. Benlate, TopsinM.

For test [4], the system named is Sclerotinia sclerotiorum. Description: Preventive test against kidney bean stem rot. In kind it is in vivo. To be noted: 4 days, 25° C. The protocol: Kidney bean plants (cultivar: Kintoki) were each grown in a 15 cm.phi. plastic pot to the trifoliate stage. The plants were sprayed with 10 ml/l pot of an aqueous diluted suspension of wettable powders of the chemicals of the invention and comparison chemical.
The wettable powders were prepared in a manner similar to example 1. After air drying for 5 hours, the plants were inoculated with mecelia of Sclerotinia sclerotiorum incubated with shaking in a Yeast-Glucose liquid medium, and kept in a humidic chamber at 25° C. for 4 days. Then the preventive value was calculated according to the equation given in test example 1.

SMILES strings stand for the structures. ≈ marks a conversion by molar mass, not a printed value.

Take `CC12C(=O)N(c3cc(Cl)cc(Cl)c3)C(=O)N1CCS2(=O)=O` (stereo not drawn) [Compound No. 6, 7a-methyl-6-(3,5-dichlorophenyl)perhydroimidazo[5,1-b]thiazole-5,7-dion-1,1-dioxide]: the figures for the pest or weed control at 500 ppm in the test with Cochliobolus miyabeans and with Botrytis cinerea were 90.6% and 90%, respectively.
As to `O=C1C2SCCN2C(=O)N1c1cc(Cl)cc(Cl)c1` (stereo not drawn) [Compound No. 1, 6-(3,5-dichlorophenyl)perhydroimidazo[5,1-b]thiazole-5,7-dion], the MIC in the test with Botrytis allii amounted to 6.2 µg/mL (≈ 20.5 µM); in test [1], 3.1 µg/mL (≈ 10.2 µM); with Altrenaria mali, 3.1 µg/mL (≈ 10.2 µM); in the test with Altrenaria Kikuchiana it was 3.1 µg/mL (≈ 10.2 µM); in the test with Sclerotinia sclerotiorum [2] it was 1.6 µg/mL (≈ 5.28 µM); in test [3], 3.1 µg/mL (≈ 10.2 µM). Further, the pest or weed control at 500 ppm in the test on Cochliobolus miyabeans was determined as 95.1%; in the test on Botrytis cinerea, 100%. For the same compound, the pest or weed control at 62.5 ppm in the test with Botrytis cinerea stood at 100%. The pest or weed control at 125 ppm with Botrytis cinerea stood at 100%. In addition, the pest or weed control at 250 ppm in the test with Botrytis cinerea was 100%. For the same compound, the “Preventive Value” in the test on Sclerotinia sclerotiorum [4] (50 ppm) is 95.3%; in the test with Sclerotinia sclerotiorum [4] (100 ppm) it was 98.2%; in the test on Sclerotinia sclerotiorum [4] (200 ppm) it was 100%.
For `O=C1C2SCCN2C(=S)N1c1cc(Cl)cc(Cl)c1` (stereo not drawn) [Compound No. 2, 6-(3,5-dichlorophenyl)perhydroimidazo[5,1-b]thiazole-5-thion-7-on], the pest or weed control at 500 ppm in the test with Cochliobolus miyabeans is 88.4%; in the test on Botrytis cinerea, 92%. The “Preventive Value” in the test with Sclerotinia sclerotiorum [4] (50 ppm) was 93.8%; with Sclerotinia sclerotiorum [4] (100 ppm), 96.5%; with Sclerotinia sclerotiorum [4] (200 ppm), 100%.
`N#Cc1c(Cl)c(Cl)c(Cl)c(C#N)c1Cl` [Tetrachloro isophthalonitrile, reference compound] returned a pest or weed control at 500 ppm in the test on Botrytis cinerea of 65%.
On to `CCCCNC(=O)n1c(NC(=O)OC)nc2ccccc21` [Benlate, reference compound], for which the MIC was 0.4 µg/mL (≈ 1.38 µM) in [1], greater than 100 µg/mL with Altrenaria mali, greater than 100 µg/mL in the test on Altrenaria Kikuchiana and greater than 100 µg/mL in test [3].
On to `CCC12SCCN1C(=S)N(c1cc(Cl)cc(Cl)c1)C2=O` (stereo not drawn) [Compound No. 9, 7a-ethyl-6-(3,5-dichlorophenyl)perhydroimidazo[5,1-b]thiazole-5-thion-7-on], for which the pest or weed control at 500 ppm in the test on Cochliobolus miyabeans is 82.9%; in the test on Botrytis cinerea, 96%.
As for `O=C1C2N(CCS2(=O)=O)C(=O)N1c1cc(Cl)cc(Cl)c1` (stereo not drawn) [Compound No. 5, 6-(3,5-dichlorophenyl)perhydroimidazo[5,1-b]thiazole-5,7-dion-1,1-dioxide], the pest or weed control at 500 ppm came to 89.6% in the test on Cochliobolus miyabeans and 91% with Botrytis cinerea.
With `Nc1c(Cl)cc([N+](=O)[O-])cc1Cl` [2,6dichloro-4-nitroaniline, reference compound], the “Preventive Value” in the test with Sclerotinia sclerotiorum [4] (500 ppm) was found to be 70.5%.
For `CCCC12SCCN1C(=O)N(c1cc(Cl)cc(Cl)c1)C2=O` (stereo not drawn) [Compound No. 8, 7a-n-propyl-6-(3,5-dichlorophenyl)perhydroimidazo[5,1-b]thiazole-5,7-dion], the figures for the pest or weed control at 500 ppm with Cochliobolus miyabeans and in the test on Botrytis cinerea were 85.4% and 97%, respectively.
Taken in the same sequence, the figures for `CCCC12SCCN1C(=S)N(c1cc(Cl)cc(Cl)c1)C2=O` (stereo not drawn) [Compound No. 10, 7a-n-propyl-6-(3,5-dichlorophenyl)perhydroimidazo[5,1-b]thiazole-5-thion-7-on] were 83.2% and 94%.
For `CC12SCCN1C(=S)N(c1cc(Cl)cc(Cl)c1)C2=O` (stereo not drawn) [Compound No. 4, 7a-methyl-6-(3,5-dichlorophenyl)perhydroimidazo[5,1-b]thiazole-5-thion-7-on], the pest or weed control at 500 ppm with Cochliobolus miyabeans came to 85.7%; in the test with Botrytis cinerea, 93%.
For the compound `CCC12SCCN1C(=O)N(c1cc(Cl)cc(Cl)c1)C2=O` (stereo not drawn) [compound 7, 7a-ethyl-6-(3,5-dichlorophenyl)perhydroimidazo[5,1-b]thiazole-5,7-dion], the values for the pest or weed control at 500 ppm in the test with Cochliobolus miyabeans and in the test with Botrytis cinerea were 90.8% and 100%, respectively.
In the case of `CC12SCCN1C(=O)N(c1cc(Cl)cc(Cl)c1)C2=O` (stereo not drawn) [Compound No. 3, 7a-methyl-6-(3,5-dichlorophenyl)perhydroimidazo[5,1-b]thiazole-5,7-dion], the MIC was determined as 3.1 µg/mL (≈ 9.77 µM) in the test on Botrytis allii; 1.6 µg/mL (≈ 5.04 µM) in test [1]; 3.1 µg/mL (≈ 9.77 µM) with Altrenaria mali; 3.1 µg/mL (≈ 9.77 µM) in the test with Altrenaria Kikuchiana; 1.6 µg/mL (≈ 5.04 µM) with Sclerotinia sclerotiorum [2]; 0.8 µg/mL (≈ 2.52 µM) in test [3]. In addition, the pest or weed control at 500 ppm came out at 96.2% with Cochliobolus miyabeans and 100% with Botrytis cinerea. In addition, the pest or weed control at 62.5 ppm in the test with Botrytis cinerea turned out to be 100%. In the test on Botrytis cinerea, this compound had a pest or weed control at 125 ppm of 100%. Besides, the pest or weed control at 250 ppm in the test on Botrytis cinerea came to 100%.
Take `CN(C)C(=S)SSC(=S)N(C)C` [Bis(dimethyl thiocarbamoyl)disulfide, reference compound]: the pest or weed control at 500 ppm in the test with Cochliobolus miyabeans is 83.3%.

(Values after patent US4229461A, “Fungicidal 6-(3,5-dichlorophenyl)perhydroimidazo[5,1-b]thiazole derivatives” (Mitsubishi Chemical Industries Limited, priority 1978, dated 1980).)
